In brackets after ≈: the same amount, converted by molar mass.

Usually kinetic solubility stands for the concentration staying in solution when a stock, usually in DMSO, is diluted into the medium.

The conditions of this series: buffer; pH 7.4; 200.0 µM.
Take `O=C(CSc1ncnc2scc(-c3ccccc3)c12)NC1CCS(=O)(=O)C1` (stereo not drawn): the solubility (kinetic) was found to be 58.6 µg/mL (≈ 140 µM).
The result for `CCc1ccc(CN(C)C(=O)c2cc(=O)c3ccccc3o2)cc1` reads 35 µg/mL (≈ 109 µM).
The result for `Cc1ccc(NS(=O)(=O)N2CCOCC2)cc1Cl` reads > 43.6 µg/mL; that for `CCOC(=O)c1[nH]c2cc3c(cc2c1NC(=O)CN1CCCC1)OCO3`, 18 µg/mL (≈ 50.1 µM); that for `CCc1ccc(C(=O)Nc2cc(S(=O)(=O)N3CCOCC3)ccc2N2CCOCC2)cc1`, 2.5 µg/mL (≈ 5.44 µM).
Next, `CCOC(=O)N1CCN(C(=O)c2cc3ccccc3o2)CC1`: > 45.3 µg/mL; `CC(C)CCC(CCN1CCCC1)c1ccc2c(c1)OCO2.O=C(O)C(=O)O` (stereo not drawn): 48.4 µg/mL; `Cn1cc([N+](=O)[O-])cc1-c1nc2ccccc2n1C`: > 38.4 µg/mL.
`CCn1c(SCc2nc3ccccc3c(=O)[nH]2)nc2ccccc21` registered a solubility (kinetic) of 1.1 µg/mL (≈ 3.27 µM).
The result for `O=C(NC(=S)NCc1ccc(Cl)cc1)c1ccco1` reads 10.6 µg/mL (≈ 36 µM).
The result for `COc1ccc(Cc2nnc(-c3ccccc3)o2)cc1` reads > 39.9 µg/mL; that for `CC(=O)Nc1ccc(OS(=O)(=O)c2ccccc2C)cc1`, 35.2 µg/mL (≈ 115 µM).
As for `O=C(c1ccc(F)cc1)N1CCC2(CC1)OCCO2`, the solubility (kinetic) was found to be 39.2 µg/mL (≈ 148 µM).
`CN1CCCN(S(=O)(=O)c2ccccc2)CC1.Cl` displayed a kinetic solubility of 39.8 µg/mL.
For `CC(=O)c1ccc(-n2ccc(=O)cc2)cc1`, the kinetic solubility is > 32 µg/mL.
The result for `O=C(Nc1cccc(S(=O)(=O)NC2=NCCC2)c1)c1ccc(F)cc1F` reads 25.8 µg/mL (≈ 68 µM); that for `Cc1ccc(S(=O)(=O)/N=C2/NC(=O)/C(=C\c3ccccc3)S2)cc1`, > 53.8 µg/mL.
Next, `COc1cc(CC(=O)OCC(=O)Nc2ccc(N(C)C)cc2)cc(OC)c1OC`: > 60.4 µg/mL; `CCc1ccc(NC2=CC(=O)CC(C)(C)C2)cc1`: 16.1 µg/mL (≈ 66.2 µM); `C/C(=N\O)c1noc(C)c1C(=O)Nc1nccs1`: 2 µg/mL (≈ 7.51 µM).
`CNC(=O)c1ccc(NC(=O)Nc2ccccc2)cc1` registered a solubility (kinetic) of 6.6 µg/mL (≈ 24.5 µM).
Next, `O=Cc1cn(CC(=O)N2CCCCCC2)c2ccccc12`: > 42.7 µg/mL.
The result for `Cc1cc(=O)n(Cc2ccccc2)c(O)c1C#N` reads 32.2 µg/mL (≈ 134 µM); that for `CCN(C(=O)COc1ccc(N(C)S(=O)(=O)c2ccc(NC(C)=O)cc2)cc1)C1CCCCC1`, 18.9 µg/mL (≈ 38.8 µM).
The result for `CC1CCN(C(=O)c2ccccc2NC(=O)c2cccc(S(=O)(=O)N(C)C)c2)CC1` reads 63.9 µg/mL (≈ 149 µM); that for `O=C(O)c1ccc2c(c1)C(=O)N(c1nccs1)C2=O`, > 41.1 µg/mL; that for `O=C(c1ccc(Cl)nc1)N1CCN(C/C=C/c2ccccc2)CC1`, > 51.3 µg/mL.
On to `FC(F)(F)c1cnc(COc2cc(Cl)cc(Cl)c2)c(Cl)c1`, for which the solubility (kinetic) is < 0.8 µg/mL.
Next, `CC(=O)NCCCc1nc2ccccc2n1Cc1ccccc1F`: 48.6 µg/mL (≈ 149 µM); `CCC(C)NS(=O)(=O)c1cc2c3c(c1)CCN3C(=O)CC2` (stereo not drawn): > 46.3 µg/mL; `CCCN1CCC(NC(=S)Nc2ccc(OC)c(OC)c2)CC1`: > 50.6 µg/mL.
The result for `O=C(NCc1cccnc1)Nc1ccc([N+](=O)[O-])cc1` reads > 40.8 µg/mL; that for `CC(=O)Nc1ccc(-c2nc3ccccc3c(=O)o2)cc1`, 0.5 µg/mL (≈ 1.78 µM).
In turn, `CCN(CC)C(=O)CCS(=O)(=O)c1cccc2nonc12` yielded a solubility (kinetic) of 45.2 µg/mL (≈ 145 µM). This solubility kinetic is about 90-fold higher than that of the compound before.
In turn, `Cc1ccc(C)c(S(=O)(=O)c2c[nH]c(=S)[nH]c2=O)c1` had a solubility (kinetic) of 36.6 µg/mL (≈ 123 µM).
Next, `CC(=O)Nc1ccc(NC(=O)COC(=O)[C@@H]2CCCN2C(=O)c2cccs2)cc1`: > 62.3 µg/mL.
Next, `CCCSc1ncccc1C(=O)O`: > 29.6 µg/mL; `O=C(NC1=NCCS1)c1cccc(OC(F)F)c1`: 23.9 µg/mL (≈ 87.8 µM); `O=C1NC2(CCCCC2)C(=O)N1CCN1C(=O)c2ccccc2C1=O`: 40.1 µg/mL (≈ 117 µM).
Next, `Cc1ccc(C(=O)CSc2nc(C(C)C)nc3ccccc23)cc1`: 0.6 µg/mL (≈ 1.78 µM).
Turning to `COc1cccc(Nc2ccc(-n3ccnc3)nn2)c1`, the kinetic solubility is > 40.1 µg/mL.
Next, `Nc1nc(SCc2ccccc2)c2[nH]cnc2n1`: 38.4 µg/mL (≈ 149 µM); `COC(=O)c1ccc(NC(=O)COc2ccc([N+](=O)[O-])cc2)cc1`: 0.4 µg/mL (≈ 1.21 µM); `COc1cc(NC(=O)c2ccc(OCc3c(C)noc3C)c(OC)c2)cc(OC)c1`: 5.4 µg/mL (≈ 13.1 µM).
Next, `O=C(NC(=S)NCc1ccccc1)c1cccc([N+](=O)[O-])c1`: 2.2 µg/mL (≈ 6.98 µM); `COc1ccc(NS(=O)(=O)c2cn(C)cn2)cc1Cl`: 17 µg/mL (≈ 56.3 µM).
The result for `CCOC(=O)c1ccccc1NC(=S)N1CCC(C(N)=O)CC1` reads 41.6 µg/mL (≈ 124 µM).
The compound `COc1ccc2cc(C(=O)C3CCCN(Cc4cccc(C)n4)C3)ccc2c1` (stereo not drawn) came in with a kinetic solubility of 37.7 µg/mL (≈ 101 µM).
Next, `O=[N+]([O-])c1ccccc1/C=N/OCc1ccccc1`: 2.6 µg/mL (≈ 10.1 µM); `N#CN(Cc1ccccc1)Cc1ccccc1`: 18.6 µg/mL (≈ 83.7 µM); `COc1ccc(CNC(=O)C2CCC(=O)N2C(C)C)c(OC)c1` (stereo not drawn): > 48.1 µg/mL.
Next, `CCN(CC)Cc1c(O)ccc2c(=O)c(Oc3ccccc3OC)c(C)oc12`: > 57.5 µg/mL; `COc1ccc(NC(=O)C23CC4CC(CC(Cl)(C4)C2)C3)cc1S(=O)(=O)N1CCOCC1`: 3.3 µg/mL (≈ 7.04 µM).
The result for `O=c1c2ccccc2nc(-c2ccccc2F)n1-c1ccccc1` reads 45.5 µg/mL (≈ 144 µM); that for `CCOCCCn1c(=NC(C)=O)c(C#N)cc2c(=O)n3ccccc3nc21`, > 54.8 µg/mL.
`CSc1nsc(SCC(=O)NCc2ccc(C)cc2)n1` had a solubility (kinetic) of 11.8 µg/mL (≈ 36.3 µM).
The result for `O=C(Nc1ccc(F)cc1)Nc1sccc1-c1nc2ccccc2s1` reads 1.1 µg/mL (≈ 2.98 µM); that for `CCOC(=O)Cn1ccc(NC(=O)c2ccc(F)cc2)n1`, > 43.7 µg/mL; that for `Cc1csc(NC(=O)CSc2ccc([N+](=O)[O-])cn2)n1`, 33.8 µg/mL (≈ 109 µM).
Next, `COC(=O)c1cc(OC)c(OC)c(OC)c1[N+](=O)[O-]`: 38.5 µg/mL (≈ 142 µM); `CCc1cccc(CC)c1NC(=O)CN1CCc2cc(OC)c(OC)cc2C1`: 38.8 µg/mL (≈ 101 µM); `CC(=NCc1ccc2c(c1)OCO2)c1c(O)n(-c2ccccc2)c(=O)[nH]c1=O`: 6.6 µg/mL (≈ 17.4 µM).
The result for `CC(C)NC(=O)C(=O)NCc1ccccn1` reads > 33.2 µg/mL.
For `O=C(CN1C(=O)C(=O)N(CCC2=CCCCC2)C1=O)Nc1ccc(F)cc1F`, the solubility (kinetic) worked out at 6.5 µg/mL (≈ 16.6 µM).
On to `CCN1CCN(C(=O)/C=C/c2ccc(C(C)C)cc2)CC1`, for which the kinetic solubility was > 43 µg/mL.
The result for `O=C(Nc1ccc(OCc2ccccc2)cc1)Nc1cccnc1` reads 1.2 µg/mL (≈ 3.76 µM).
Next, `O=C(CCc1ccncc1)N1CCCC(Nc2ccc(F)cc2)C1` (stereo not drawn): 45.6 µg/mL (≈ 139 µM).
The result for `O=C(c1ccccc1F)N1CCN(c2ccccn2)CC1` reads > 42.8 µg/mL; that for `NC(=O)Nc1ccc(C(=O)OCC(=O)NC2CCCCC2)cc1`, 37.5 µg/mL (≈ 117 µM).
For `O=C(NCc1cccc(C(F)(F)F)c1)c1ccc(=O)[nH]c1`, the solubility (kinetic) is > 44.4 µg/mL.
The result for `S=C(NCCNC(=S)Nc1ccccc1)Nc1ccccc1` reads 9.4 µg/mL (≈ 28.4 µM).
On to `C=CCOc1ccc(/C=C2\SC(N3CCCCC3)=NC2=O)cc1`, for which the solubility (kinetic) is < 0.4 µg/mL.
The result for `FC(F)(F)c1cnc(N2CCSCC2)c(Cl)c1` reads < 0.3 µg/mL.
